This note sets out measurements from article PMC9296036, “A peptide interfering with the dimerization of oncogenic KITENIN protein and its stability suppresses colorectal tumour progression” (Clinical and Translational Medicine, 2022).

The test system of the test is Caco2/KITENIN cells. The test is described as follows: Transwell cell invasion assay, Caco2/KITENIN cells. The settings on record: Caco2 cells transfected with KITENIN-V5, KDIP versus scrambled peptide. It counts as cell-based. On the procedure:
Cell invasion was measured using the transwell migration apparatus as described.[18] Briefly, cultured cells were seeded into the top of a 24‐well invasion chamber assay plate (Costar). Conditioned DMEM medium containing 10 μg/ml of fibronectin (Calbiochem) and 1% FBS was added to the bottom chamber as a chemoattractant. After 16 h (Caco2) or 48 h (HCT116) of incubation, the cells were stained. Cells at the top surface of the filters were wiped off with a cotton ball, and migrated cells on the bottom surface were counted in four random squares of .5 mm × .5 mm on each filter. The results are shown as the mean ± SEM of the number of cells per field for at least three independent experiments.
Effect of KAI1 C‐terminal interacting tetraspanin (KITENIN) dimerization‐interfering peptide (KDIP) on tumour growth and metastasis in in vivo mouse model of colorectal cancer (CRC). […] For the evaluation of metastasis, total fluorescence emitted from liver nodules expressing iRFP was measured and counted (left panel) or metastatic tumour growth was counted as nodules that migrated to the surface of the liver, and a metastatic score was obtained by multiplying it with size (middle panel). Metastatic score or total fluorescence is represented as mean ± SEM. […] The quantitative amount of each protein was measured by densitometry and is represented as an arbitrary score (mean ± SEM, n = 6). […]

Ends that are not written are not given here.

Turning to YARVRRRGPRRWRLVSDEAV [KDIP], the “cellular invasion by overexpressed KITENIN (in words)” value is given as “reduced”.
